Reference: patent US20070213340A1, “Farnesyl protein transferase inhibitors” (priority 2006, published 2007)

Each compound was assayed against farnesyl protein transferase (Homo sapiens, UniProt P49354+P49356) (assay: FPT IC50 (inhibition of farnesyl protein transferase, in vitro enzyme assay)). Details: procedure of WO 95/10516.
Assay type: biochemical
Description: FPT IC50 (inhibition of farnesyl protein transferase, in vitro enzyme assay) was determined, and COS Cell IC50 (Cell-Based Assay) could be determined following the assay procedures described in WO 95/10516, published Apr. 20, 1995. GGPT IC50 (inhibition of geranylgeranyl protein transferase, in vitro enzyme assay), Cell Mat Assay, and anti-tumor activity (in vivo anti-tumor studies) could be determined by the assay procedures described in WO 95/10516. The disclosure of WO 95/10516 is incorporated herein by reference thereto.

| Structure (SMILES) | IC50 [nM] |
| --- | --- |
| CCOC(=O)CCCNC(=O)[C@H]1CN(C(=O)OC(C)(C)C)CCN1C1c2ccc(Cl)cc2CCc2cccnc21 (single isomer, unassigned) [compound 7, 4-(8-Chloro-6,11-dihydro-5H-benzo[5,6]cyclohepta[1,2-b]pyridin-11-yl)-3R-(3-ethoxycarbonyl-propylcarbamoyl)-piperazine-1-carboxylic acid tert-butyl ester] | 5.5 |
| CC(C)(C)OC(=O)N1CCN(C2c3ccc(Cl)cc3CCc3cccnc32)[C@@H](C(=O)NCCCC(=O)O)C1 (single isomer, unassigned) [compound 8, 3R-(3-Carboxy-propylcarbamoyl)-4-(8-chloro-6,11-dihydro-5H-benzo[5,6]cyclohepta[1,2-b]pyridin-11-yl)-piperazine-1-carboxylic acid tert-butyl ester] | 5.5 |
| CC(C)(C)OC(=O)N1CCN(C2c3ccc(Cl)cc3CCc3cccnc32)[C@@H](C(=O)NCCCC(=O)O)C1 (single isomer, unassigned) [compound 9, 3R-(3-Carboxy-propylcarbamoyl)-4-(8-chloro-6,11-dihydro-5H-benzo[5,6]cyclohepta[1,2-b]pyridin-11-yl)-piperazine-1-carboxylic acid tert-butyl ester] | 6.3 |

Compounds with a lower IC50, results first:

| IC50 [nM] | Structure (SMILES) |
| --- | --- |
| 5.2 | CCOC(=O)CCCNC(=O)[C@H]1CN(C(=O)OC(C)(C)C)CCN1C1c2ccc(Cl)cc2CCc2cccnc21 (single isomer, unassigned) [compound 6, 4-(8-Chloro-6,11-dihydro-5H-benzo[5,6]cyclohepta[1,2-b]pyridin-11-yl)-3R-(3-ethoxycarbonyl-propylcarbamoyl)-piperazine-1-carboxylic acid tert-butyl ester] |
| 1.2 | CC(C)(C)OC(=O)N1CCN(C2c3ccc(Cl)cc3CCc3cccnc32)[C@@H](C(=O)NCCCn2ccnc2)C1 (stereo partly drawn) [Compound 12, 4-(8-Chloro-6,11-dihydro-5H-benzo[5,6]cyclohepta[1,2-b]pyridin-11-yl)-3R-(3-imidazol-1-yl-propylcarbamoyl)-piperazine-1-carboxylic acid tert-butyl ester] |
